Usually EC50 stands for the concentration giving half of the maximal effect.

One assay deals with INSR. Briefly: Insulin HeLa phospho-Akt. It is filed as cell-based. The following applies: upstream kinase INSR. On the procedure:
(§1) Growth factor-dependent protein phosphorylation was detected in HeLa cells by staining permeabilized cells with phospho-specific antibodies and quantified by chemiluminescence (Luminator, Wallac Multilabel Counter; Perkin Elmer). Akt phosphorylation was measured following insulin stimulation and EGFR phosphorylation was measured following EGF stimulation (Phospho-AKT, Cell signaling technology, Danvers, Mass.; 1 μM Insulin, Millipore, Billerica, Mass.; Phospho-EGFR, tyr1173, clone 53A3, Cell Signaling Technology; 200 ng/ml recombinant human EGF, PeproTech, Hamburg, Germany). Human umbilical vein endothelial cells (HUVECs) were stimulated with VEGF and VEGFR2 phosphorylation was assessed by ELISA (100 ng/ml VEGF165, R&D Systems; Rabbit anti-phospho-VEGFR2 mAb, Cell Signaling Technology).

The test system of the next assay is Syk. Kind of assay: IgE CHMC tryptase release. Type of assay: cell-based. Particulars: Homo sapiens, read-out: IgE CHMC tryptase EC50. On the procedure:
The erythropoietin (EPO)-dependent survival of cultured human erythroid progenitor cells (CHEPs) was determined using CellTiter-Glo® Luminescent Cell Viability Assay (Promega). Human primary T cell activation was assessed by measuring IL-2 production by ELISA (R&D Systems, Minneapolis, Minn., USA) following plate-bound anti-CD3 and anti-CD28 stimulation (Anti-Human CD3; BD Biosciences; Anti-Human CD28; Immunotech; Prague, Czech Republic). The enzymatic activity of tryptase released by human cultured mast cells (CHMCs) upon stimulation with IgE was quantified by cleavage of the synthetic fluorescent peptide substrate Z-Ala-Lys-Arg-7-amino-4-methylcoumarin (MP Biomedicals, Solon, Ohio, USA) in tryptase buffer. B-cell receptor-dependent Erk phosphorylation was measured in Ramos cells by intracellular FACS (anti-pT202/pY204-ERK1/2-AlexaFluor488; BD Biosciences). Cell proliferation assays were performed using A549 epithelial cells and H1299 lung carcinoma cells using nuclear staining to measure cell numbers (4′6-diamidino-2-phenylindole, dihydrochloride (DAPI; Invitrogen, Darmstadt, Germany)).

Assay [1] has as its system JAK1/Tyk2. Briefly: IFN-γ T cell phospho-STAT1. Type of assay: cell-based. The following applies: Homo sapiens. As to the method: (§2) The activity of Compound III and Compound I was assessed in a panel of cell-based assays. Compound III and Compound I are selective inhibitors of JAK1/3-dependent signaling. Data for a non-selective JAK inhibitor (Compound IV) is shown for reference. Mixed lymphocyte reactions (MLRs) were performed by incubating freshly prepared naive human peripheral blood lymphocytes from one donor with CD80+/CD86+ mature Dendritic Cells derived from a different donor for 5 days. The percentage of CD3+/CD71+ (anti-CD3-APC, Clone HIT3a, anti-CD 71-FITC, Clone M-A712; BD Biosciences, San Jose, Calif.) proliferating cells was assessed by fluorescence-activated cell sorting (FACS; BD Bioscience). Interleukin-2 (IL-2)-dependent human primary T cell proliferation was assessed using CellTiter-Glo® Luminescent Cell Viability Assay (Promega, Madison, Wis.). STAT phosphorylation induced by different cytokines in human primary T cells was measured by intracellular FACS analysis (anti-pY694-STAT5 AlexaFluor488, anti-pY701-STAT1 AlexaFluor488, and anti-pY693-STAT4 AlexaFluor488; BD Biosciences). […] Interferon-γ (IFN-γ) signaling was assessed in the U937 monocytic cell line by measuring ICAM-1 surface expression by FACS (ICAM-1-APC, BD Bioscience).

Another assay concerns JAK2. Briefly: GM-CSF whole blood granulocytes phospho-STAT5. Type of assay: cell-based. Particulars: read-out: GM-CSF whole blood granulocytes phospho-STAT5 EC50. On the procedure: as §2
For a further assay, the target named is T1, VEGFR2 (Homo sapiens, UniProt P35968).
T1 construct: endogenous in cells; host or cells: HUVEC (human umbilical vein endothelial cells)
T1 sequence (P35968 20-1356): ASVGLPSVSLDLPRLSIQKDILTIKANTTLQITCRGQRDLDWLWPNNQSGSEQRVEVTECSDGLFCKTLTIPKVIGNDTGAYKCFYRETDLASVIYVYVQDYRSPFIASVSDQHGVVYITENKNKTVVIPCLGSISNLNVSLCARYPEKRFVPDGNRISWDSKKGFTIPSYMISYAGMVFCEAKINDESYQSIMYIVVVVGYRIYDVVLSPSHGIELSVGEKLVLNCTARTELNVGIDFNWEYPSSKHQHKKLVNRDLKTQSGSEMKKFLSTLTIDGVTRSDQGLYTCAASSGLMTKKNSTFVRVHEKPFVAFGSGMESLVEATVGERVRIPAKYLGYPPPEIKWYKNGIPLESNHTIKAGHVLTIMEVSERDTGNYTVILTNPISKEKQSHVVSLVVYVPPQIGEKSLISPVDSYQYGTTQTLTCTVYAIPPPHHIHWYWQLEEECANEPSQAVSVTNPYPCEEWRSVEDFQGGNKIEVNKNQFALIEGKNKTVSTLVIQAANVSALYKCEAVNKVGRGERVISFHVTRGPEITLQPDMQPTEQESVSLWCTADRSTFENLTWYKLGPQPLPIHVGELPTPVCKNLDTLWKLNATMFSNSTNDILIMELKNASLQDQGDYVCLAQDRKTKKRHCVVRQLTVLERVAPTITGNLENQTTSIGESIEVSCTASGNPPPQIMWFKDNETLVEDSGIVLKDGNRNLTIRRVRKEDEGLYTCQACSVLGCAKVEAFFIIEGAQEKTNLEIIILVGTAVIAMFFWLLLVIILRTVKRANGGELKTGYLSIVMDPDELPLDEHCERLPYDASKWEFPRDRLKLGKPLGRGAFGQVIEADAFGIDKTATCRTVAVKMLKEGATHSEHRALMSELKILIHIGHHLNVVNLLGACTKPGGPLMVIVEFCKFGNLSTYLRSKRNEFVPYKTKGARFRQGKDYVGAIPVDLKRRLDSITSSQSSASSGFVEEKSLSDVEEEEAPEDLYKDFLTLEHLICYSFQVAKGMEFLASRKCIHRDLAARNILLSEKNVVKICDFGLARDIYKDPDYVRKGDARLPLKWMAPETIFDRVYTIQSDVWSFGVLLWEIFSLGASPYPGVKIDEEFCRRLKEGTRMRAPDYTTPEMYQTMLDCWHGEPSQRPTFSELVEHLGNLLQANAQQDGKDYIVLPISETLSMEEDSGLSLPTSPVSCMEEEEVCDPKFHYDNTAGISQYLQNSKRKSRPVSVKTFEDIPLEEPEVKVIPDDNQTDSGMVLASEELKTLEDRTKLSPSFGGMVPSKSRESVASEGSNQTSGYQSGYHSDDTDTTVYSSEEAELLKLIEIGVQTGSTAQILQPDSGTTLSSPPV
Kind of assay: VEGF HUVEC phospho-VEGFR2. It is filed as cell-based. On the procedure:
as §1

The test system of the next assay is JAK1/3. Kind of assay: IL-2 whole blood lymphocytes phospho-STAT5. Particulars: Lymphocyte, read-out: IL-2 whole blood lymphocytes phospho-STAT5 EC50. Type of assay: cell-based. As to the method:
as §2

Assay [2] has as its system Lew recipients of heterotopic BN heart transplants. Kind of assay: Five-day heart allograft study: intragraft cytokines (Quantibody arrays). It is filed as in vivo, rat. The following applies: HD groups; for intragraft IFN-γ release / intragraft IL-10 release compared to no medication group: five days; for intragraft IFN-γ release / intragraft IL-10 release compared to no medication group / intragraft IL-10 release compared to Tac HD treatment: p<0.05. As to the method: Compound I and Compound III were provided by Rigel (South San Francisco, Calif.) and Tacrolimus was provided by Astellas (Munich, Germany). All drugs were administrated orally each in two different concentrations: Compound I LD (15 mg/kg BID; n=6) and HD (60 mg/kg BID; n=6); […] Administration of all drugs was performed every day at the same time points. Tacrolimus was applied only once a day (QD) every 24 hours. During administration of Compound I (BID) and Compound III (BID) a 12 hour pause was kept in between each drug application. Lew recipients of heterotopic BN heart transplants were randomly assigned to their group. […] An untreated syngeneic transplant group Lew-Lew was generated as control. […] Hearts were equally homogenized in 400 μl RIPA buffer (Sigma-Aldrich, St. Louis, Mo.). The protein content within the supernatant was quantified using the colorimetric BCA protein assay (Thermo Fisher Scientific, Rockford, Ill.) at 562 nm wavelength, according to the manufacturer's protocol. A total of 300 μg protein per Quantibody® array glass chip was used to quantitatively measure the intracellular cytokine content by ELISA in quadruplicates (Human cytokine array 1, Raybiotech). All values were normalized to the standard curve. Glass chip analysis was performed by Raybiotech.

A further assay concerns JAK1/2/Tyk2. Kind of assay: IL-6 whole blood lymphocytes phospho-STAT3. It is filed as cell-based. Particulars: Lymphocyte, read-out: IL-6 whole blood lymphocytes phospho-STAT3 EC50. On the procedure:
as §2

A further assay deals with T2, EGFR (Homo sapiens, UniProt P00533).
T2 construct: Growth factor-dependent protein phosphorylation was detected in HeLa cells; endogenous in cells; host or cells: HeLa
T2 sequence (P00533 25-1210): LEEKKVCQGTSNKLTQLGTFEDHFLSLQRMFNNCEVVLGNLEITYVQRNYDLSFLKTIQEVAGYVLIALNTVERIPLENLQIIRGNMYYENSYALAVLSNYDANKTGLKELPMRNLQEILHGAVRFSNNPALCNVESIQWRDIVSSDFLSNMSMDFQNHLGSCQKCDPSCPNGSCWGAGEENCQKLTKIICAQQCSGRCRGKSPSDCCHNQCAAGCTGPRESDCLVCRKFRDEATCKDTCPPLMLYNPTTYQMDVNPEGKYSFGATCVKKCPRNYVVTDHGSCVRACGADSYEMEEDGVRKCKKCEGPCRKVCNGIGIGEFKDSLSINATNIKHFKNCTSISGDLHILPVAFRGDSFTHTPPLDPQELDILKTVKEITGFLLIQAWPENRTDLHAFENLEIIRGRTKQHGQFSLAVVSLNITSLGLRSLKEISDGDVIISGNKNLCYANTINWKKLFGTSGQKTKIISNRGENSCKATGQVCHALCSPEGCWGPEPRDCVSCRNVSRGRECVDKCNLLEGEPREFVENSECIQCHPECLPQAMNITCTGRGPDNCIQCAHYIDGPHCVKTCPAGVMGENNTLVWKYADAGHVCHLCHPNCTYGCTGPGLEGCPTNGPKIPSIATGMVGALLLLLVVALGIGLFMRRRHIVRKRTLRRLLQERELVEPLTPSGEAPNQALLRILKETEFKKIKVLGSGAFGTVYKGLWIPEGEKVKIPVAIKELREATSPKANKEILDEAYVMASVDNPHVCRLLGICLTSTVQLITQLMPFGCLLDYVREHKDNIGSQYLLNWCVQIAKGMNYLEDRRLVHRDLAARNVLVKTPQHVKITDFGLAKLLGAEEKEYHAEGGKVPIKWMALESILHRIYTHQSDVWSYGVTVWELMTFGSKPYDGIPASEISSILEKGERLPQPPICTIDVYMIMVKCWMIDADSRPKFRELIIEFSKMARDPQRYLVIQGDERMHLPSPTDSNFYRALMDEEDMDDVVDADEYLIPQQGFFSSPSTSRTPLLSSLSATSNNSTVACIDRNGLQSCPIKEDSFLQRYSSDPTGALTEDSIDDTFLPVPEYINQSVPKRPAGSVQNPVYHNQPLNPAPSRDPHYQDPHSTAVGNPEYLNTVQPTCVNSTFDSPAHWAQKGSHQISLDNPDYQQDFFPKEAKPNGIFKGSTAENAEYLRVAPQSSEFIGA
Kind of assay: EGF HeLa phospho-EGFR. Type of assay: cell-based. As to the method: as §1

The subject of assay [3] is JAK1/Tyk2. Briefly: IFN-γ whole blood lymphocytes phospho-STAT1. It is filed as cell-based. Particulars: Lymphocyte, read-out: IFN-γ whole blood lymphocytes phospho-STAT1 EC50. On the procedure:
as §2

“Also recorded” adds a separate entry of the source. Like-named read-outs stand apart in the source and are kept apart here. Bounds are passed on as bounds.

On to `COc1cc(Nc2ncc(C)c(Nc3ccc4oc(=O)[nH]c4c3)n2)cc(C)c1C` [Compound III, 5-(2-(3-methoxy-4,5-dimethylphenylamino)-5-methylpyrimidin-4-ylamino)benzol[d]oxazol-2-(3H)-one], for which the “Insulin HeLa phospho-Akt EC50” value with INSR is “Inactive”. Besides, the EC50 in the assay with Syk was 380 ± 150 nM; in the assay with JAK1/Tyk2 [1] (read-out: IFN-γ T cell phospho-STAT1 EC50), 7 ± 1 nM; with JAK2, above 50000 nM; on VEGFR2 it was 29300 ± 14300 nM; in the assay on JAK1/3 it was 887 ± 295 nM; in the assay on JAK1/2/Tyk2, 6690 ± 1610 nM. Further, the EC50 in the assay on JAK1/Tyk2 [3] is 511 ± 279 nM. For the same compound, in [2], the “intragraft MCP-1 release compared to Tac HD treatment” value is recorded as “lower mean values”. In addition, the “intragraft IFN-γ release” value in assay [2] was “significantly less; also recorded: significant reduction”. Besides, the “intragraft IL-10 release compared to no medication group” value in assay [2] is listed as “significantly reduced; also recorded: significant reduction”. Besides, the “intragraft IL-10 release compared to Tac HD treatment” value in [2] was “significantly less IL-10 release”. On EGFR, the “EGF HeLa phospho-EGFR EC50” value is listed as “Inactive”.
With `COc1cc(Nc2ncc(C)c(Nc3ccc4oc(=O)[nH]c4c3)n2)cc(C)c1F` [Compound I, 5-(2-(4-fluoro-3-methoxy-5-methylphenylamino)-5-methylpyrimidin-4-ylamino)benzo[d]oxazol-2(3H)-one], the “Insulin HeLa phospho-Akt EC50” value with INSR was “Inactive”. For the same compound, the EC50 with Syk (upstream kinase Syk) came out at 457 ± 263 nM; in the assay on JAK1/Tyk2 [1] (upstream kinases JAK1/Tyk2, read-out: IFN-γ T cell phospho-STAT1 EC50) it was 9 ± 7 nM; in the assay on JAK2 (whole blood, JAK2), 32700 ± 9510 nM; at VEGFR2 it was 17800 ± 3870 nM; in the assay on JAK1/3 (whole blood, JAK1/3) it was 416 ± 152 nM; with JAK1/2/Tyk2 (whole blood, JAK1/2/Tyk2) it was 3830 ± 1520 nM. In the assay with JAK1/Tyk2 [3] (whole blood, JAK1/Tyk2), the concentration for a half-maximal effect (EC50) is 153 ± 33 nM. In addition, the “intragraft MCP-1 release compared to Tac HD treatment” value in assay [2] is given as “lower mean values”. Besides, the “intragraft IFN-γ release” value in assay [2] is “significantly less; also recorded: significant reduction”. Further, in assay [2], the “intragraft IL-10 release compared to no medication group” value is reported as “significantly reduced; also recorded: significant reduction”. Besides, in assay [2], the “intragraft IL-10 release compared to Tac HD treatment” value is “significantly less IL-10 release”. For the same compound, the “EGF HeLa phospho-EGFR EC50” value on EGFR is “Inactive”.

The record behind these values is patent US8637038B2, “Methods for inhibiting allograft rejection” (Rigel Pharmaceuticals, Inc., priority 2011, dated 2014).
